Results from patent US9174991B2, “Crystalline form of pemetrexed disodium” (Azad Pharmaceutical Ingredients AG, priority 2009, dated 2015).
Structures can show the parent of a compound that is named as a salt. Where two headings read alike, the source gives them in different places.

Assays:
[1] = not given; remark: listed apart in the source
[2] = starting material, before storage
Description: HPLC analysis was done on an Agilent 1100 system equipped with DAD detector using a Zorbax SB-Phenyl column (150×4.6 mm, 3 μm). Measurements were done at 230 nm wavelengths at 25° C. using a flow of 1.0 mL/min and 8 min post-run time. As mobile phase water containing 0.03% TFA and acetonitrile containing 0.025% TFA were used, solvents were HPLC grade. Sample preparation: 10 mg sample in 25 mL water:ACN=1:1, 5 uL injection. Retention time Pemetrexed Disodium: 10.3 min.
PXRD: Routine PXRD measurements were carried out on a Bruker AXS D8Advance diffractometer equipped with CuKα source with CuKβ filter and a VANTEC detector (Ser. No.: 202964). Measurement parameters: 3° 2theta to 39.9° 2theta, step time: 2s, step size: 0.022°, T=25° C., X-ray generator: 35 kV/40 mA.

[3] = 70° C., 5 mbar
Description: To investigate the stability of the different forms of Pemetrexed Disodium a stability test concerning storage at different relative humidity, storage in the presence of light and stability under drying conditions was carried out.
Four samples were stored at 70° 5 mbar in laboratory vacuum oven. IPC were taken after 2 d, 9 d
HPLC analysis was done on an Agilent 1100 system equipped with DAD detector using a Zorbax SB-Phenyl column (150×4.6 mm, 3 μm). Measurements were done at 230 nm wavelengths at 25° C. using a flow of 1.0 mL/min and 8 min post-run time. […] Sample preparation: 10 mg sample in 25 mL water:ACN=1:1, 5 uL injection.

[4] = 5% to 12% relative humidity, dark, air, 2 d, measured 11.7% (Form A 5.8%), 23° C.
[5] = 27% to 33% relative humidity, dark, air, 16 d, measured 30.4% (Form A 28.7%), 24° C.
[6] = 39% to 50% relative humidity, dark, air, 5 d, measured 42.8% (Form A 38.6%), 24° C.
[7] = 39% to 50% relative humidity, dark, air, 9 d, measured 48% (Form A 47%), 24° C.
[8] = 39% to 50% relative humidity, dark, air, 16 d, measured 47.3% (Form A 46.4%), 24° C.
[9] = 60% to 70% relative humidity, dark, air, 5 d, measured 63% (Form A 57%), 24° C.
[10] = 60% to 70% relative humidity, dark, air, 9 d, measured 69% (Form A 68%), 24° C.
[11] = 60% to 70% relative humidity, dark, air, 16 d, measured 66.9% (Form A 67.2%), 24° C.
[12] = 2 d, listed as Pemetrexed Disodium Heptahydrate

Which results are given for Nc1nc(O)c2c(CCc3ccc(C(=O)N[C@@H](CCC(=O)O)C(=O)O)cc3)c[nH]c2n1 [Heptahydrate, disodium N-[4-[2-(2-amino-4,7-dihydro-4-oxo-3H-pyrrolo[2,3-d]-pyrimidin-5-yl)ethyl]benzoyl]-L-glutamic acid salt]?
H2O (KFT) [4]: 19.7%; HPLC-purity (10.5 min) [4]: 99.70%; HPLC-purity (10.5 min) (5% to 12% relative humidity, dark, air, 5 d, measured 9.5% (Form A 5.3%), 24° C.): 99.73%; HPLC-purity (10.5 min) (5% to 12% relative humidity, dark, air, 9 d, measured 9% (Form A 6%), 24° C.): 99.86%; HPLC-purity (5% to 12% relative humidity, dark, air, 16 d, measured 8.5% (Form A 5.8%), 24° C.): 99.88%; PXRD (5% to 12% relative humidity, dark, air, 16 d, measured 8.5% (Form A 5.8%), 24° C., listed as Pemetrexed Disodium Heptahydrate): almost complete transformation to Pemetrexed Disodium 2.5 hydrate; HPLC-purity (27% to 33% relative humidity, dark, air, 2 d, measured 29.8% (Form A 28%), 23° C.): 99.74%; HPLC-purity (27% to 33% relative humidity, dark, air, 5 d, measured 29% (Form A 27%), 24° C.): 99.62%; HPLC-purity (27% to 33% relative humidity, dark, air, 9 d, measured 31% (Form A 30%), 24° C.): 99.84%; HPLC-purity [5]: 99.91%; PXRD [5]: Heptahydrate; HPLC-purity (39% to 50% relative humidity, dark, air, 2 d, measured 41.1% (Form A 39%), 23° C.): 99.84%; HPLC-purity [6]: 99.78%; PXRD [6]: Heptahydrate; HPLC-purity [7]: 99.81%; PXRD [7]: Heptahydrate; HPLC-purity [8]: 99.91%; PXRD [8]: Heptahydrate; HPLC-purity (60% to 70% relative humidity, dark, air, 2 d, measured 61%, 22° C. (Form A 54%, 23° C)): 99.63%; HPLC-purity [9]: 99.81%; PXRD [9]: Heptahydrate; HPLC-purity [10]: 99.81%; PXRD [10]: Heptahydrate; HPLC-purity [11]: 99.90%; PXRD [11]: Heptahydrate; change in HPLC purity in any of the samples (in words) (all relative humidities tested (5% to 70%), up to 16 d): No significant change; HPLC-purity ([1]; daylight study, Start): 99.63%; change in HPLC purity in the presence of light (in words) ([1]; daylight, text says after 16 d): do not show significant changes; change in color in the presence of light (in words) ([1]; daylight, text says after 16 d): do not show significant changes; HPLC-purity ([1]; double PE plastic bags, daylight, 20° C. to 25° C., 15 d): 99.65%; HPLC-purity (10.5 min) [2]: 99.90%; HPLC-purity (10.5 min) ([3]; 2 d): 99.86%; PXRD ([3]; 2 d): 2.5 hydrate; H2O (KFT) [3, 12]: 8.4%; PXRD [3, 12]: only 2.5 hydrate; HPLC-purity (10.5 min) ([3]; 9 d): 99.80%; change in HPLC-purity upon vacuum drying (in words) ([3]; up to 9 d, listed as Pemetrexed Disodium Heptahydrate): No significant change
